We go through nine compounds from US20230117831A1, “MULTI-FUNCTIONAL CHIMERIC MOLECULES” (THE BROAD INSTITUTE, INC., priority 2020, published 2023).

The target in one experiment is BRD4 (Abl) (Homo sapiens, UniProt O60885+P00519). Briefly: tyrosine phosphorylation Abl-BRD4 (Millipore). Format: biochemical. The conditions noted are these: relative to control DMSO. As to the method:
Multi-functional molecules comprising a BRD4 localizing moiety and an Abl activator moiety were assayed for tyrosine phosphorylation activity (Millipore)(FIG. 91). […] DPH derived PHICS phosphorylation levels, and thus, Abl engagement, varied by attachment of the DPH derivative to the multifunctional chimeric molecule via orienting adaptor and linker (FIG. 92).

In the next experiment the target is LYN [isoform a] (Homo sapiens, UniProt P07948). The following applies: cited from earlier work.
For another experiment, the target named is TIE2 (Homo sapiens, UniProt Q02763). The conditions noted are these: cited from earlier work.
The target of a further experiment is RET (Homo sapiens, UniProt P07949). The following applies: cited from earlier work.
In the next experiment the target is FGFR1 (Homo sapiens, UniProt P11362). The following applies: cited from earlier work.
A further experiment concerns the target FYN [isoform a] (Homo sapiens, UniProt P06241). The following applies: cited from earlier work.
The next experiment deals with BTK (Homo sapiens, UniProt Q06187). The conditions noted are these: cited from earlier work.
The target of the next experiment is T1, DDR2 (Homo sapiens, UniProt Q16832).
T1 sequence (Q16832 22-855): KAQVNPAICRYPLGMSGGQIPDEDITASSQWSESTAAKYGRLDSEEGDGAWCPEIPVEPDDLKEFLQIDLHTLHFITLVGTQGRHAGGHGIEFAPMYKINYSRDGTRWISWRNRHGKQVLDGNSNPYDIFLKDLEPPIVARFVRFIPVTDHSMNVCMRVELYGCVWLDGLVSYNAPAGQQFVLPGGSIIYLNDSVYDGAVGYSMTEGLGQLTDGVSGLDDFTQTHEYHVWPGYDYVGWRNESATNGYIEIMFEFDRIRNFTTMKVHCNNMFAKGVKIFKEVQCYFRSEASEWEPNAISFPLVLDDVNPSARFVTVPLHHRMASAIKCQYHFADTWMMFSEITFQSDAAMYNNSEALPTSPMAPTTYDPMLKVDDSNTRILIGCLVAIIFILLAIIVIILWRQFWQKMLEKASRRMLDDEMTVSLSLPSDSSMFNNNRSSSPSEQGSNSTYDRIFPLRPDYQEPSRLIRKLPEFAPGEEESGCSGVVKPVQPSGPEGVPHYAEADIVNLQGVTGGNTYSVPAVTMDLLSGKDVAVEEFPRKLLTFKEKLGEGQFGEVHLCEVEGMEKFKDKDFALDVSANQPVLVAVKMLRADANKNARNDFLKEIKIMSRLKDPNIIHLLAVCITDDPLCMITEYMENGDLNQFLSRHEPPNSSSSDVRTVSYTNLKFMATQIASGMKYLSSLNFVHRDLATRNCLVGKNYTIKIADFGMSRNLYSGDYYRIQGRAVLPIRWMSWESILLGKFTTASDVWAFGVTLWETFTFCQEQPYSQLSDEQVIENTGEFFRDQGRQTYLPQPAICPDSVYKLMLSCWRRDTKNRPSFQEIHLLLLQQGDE
The conditions noted are these: cited from earlier work.

In another experiment the target is BRAF (Homo sapiens, UniProt P15056). The conditions noted are these: cited from earlier work.
For a further experiment, the target named is BRD4 (AMPK) (Homo sapiens, UniProt O60885+Q13131+Q9Y478). The experiment can be described thus: in vitro kinase assay, BRD4 phosphorylation by AMPK with/without AMP. In kind it is biochemical. The conditions noted are these: 1 uM compound, with and without 100 uM AMP. The protocol: In vitro kinase assay was conducted for BRD4 phosphorylation by AMPK (1 uM compound). Compounds MS231, and VS806 tested are depicted below.
Compounds MS231, VS806 and VS804 were tested with and without 100 uM AMP. ADP glo for BRD4 phosphorylation by AMPK with and without AMP was conducted. The addition of AMP enhanced the phosphorylation signal, with ADP production measured at 2 hours, 20 nM AMPK.

The target in the next experiment is PKC beta (Homo sapiens, UniProt P05771). The following applies: PKC beta; read-out: Kd; cited from earlier work.
The target of the next experiment is PKCalpha (Homo sapiens, UniProt P17252). The conditions noted are these: PKC alpha; read-out: Kd; cited from earlier work.
The next experiment concerns the target T2, PKC epsilon (Homo sapiens, UniProt Q02156).
T2 sequence (Q02156 1-737): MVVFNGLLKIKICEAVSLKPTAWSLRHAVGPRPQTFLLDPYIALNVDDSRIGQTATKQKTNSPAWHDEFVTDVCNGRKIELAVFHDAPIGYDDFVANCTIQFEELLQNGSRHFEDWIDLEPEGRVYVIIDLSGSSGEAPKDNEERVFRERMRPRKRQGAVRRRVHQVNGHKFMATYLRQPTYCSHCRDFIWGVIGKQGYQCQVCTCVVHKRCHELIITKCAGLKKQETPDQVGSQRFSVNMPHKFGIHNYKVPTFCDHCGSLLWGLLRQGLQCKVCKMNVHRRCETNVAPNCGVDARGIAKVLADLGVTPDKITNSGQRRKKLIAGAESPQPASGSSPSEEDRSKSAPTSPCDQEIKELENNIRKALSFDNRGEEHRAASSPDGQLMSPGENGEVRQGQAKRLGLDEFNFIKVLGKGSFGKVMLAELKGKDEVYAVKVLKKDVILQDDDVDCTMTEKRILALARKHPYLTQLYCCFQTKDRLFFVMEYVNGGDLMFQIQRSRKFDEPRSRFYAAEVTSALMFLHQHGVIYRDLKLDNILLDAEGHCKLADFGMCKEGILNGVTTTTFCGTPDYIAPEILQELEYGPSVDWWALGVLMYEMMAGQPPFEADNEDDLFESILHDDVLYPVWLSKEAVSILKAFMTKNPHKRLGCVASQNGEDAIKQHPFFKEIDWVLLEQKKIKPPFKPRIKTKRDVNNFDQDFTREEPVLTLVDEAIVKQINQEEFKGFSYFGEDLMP
The following applies: PKC epsilon; read-out: Kd; cited from earlier work.

Another experiment addresses PKC gamma (Homo sapiens, UniProt P05129). The conditions noted are these: PKC gamma; read-out: Kd; cited from earlier work.
Experiment [1] relates to breast carcinoma cell lines MCF-7 and MDA-MB-231. The conditions noted are these: cited from earlier work.
Another experiment concerns the target PKC delta (Homo sapiens, UniProt Q05655). The following applies: PKC delta; read-out: Kd; cited from earlier work.
The target in the next experiment is PKCα (Homo sapiens, UniProt P17252). The experiment can be described thus: ADP-Glo kinase activation, CREBtide peptide. In kind it is biochemical. Details: GST; purchased SignalChem P61-18G. The protocol: ADP-Glo assay was performed with PHICS (PKC) in a similar manner with some modifications as follows. In a 96 well plate (white, flat bottom), similar concentration series of PHICS (2.1, 2.2, 2.3, 2.4 and 2.5) were prepared using same kinase assay buffer and incubated with 2 ng of PKC, 0.2 μg/μL CREBtide peptide and 50 μM ATP for 1 hr at room temperature before incubation with ADP-Glo assay reagents.
On the technique in general: ADP-Glo turns the ADP formed in a reaction into a luminescent signal.

The next experiment has as its target PKC eta (Homo sapiens, UniProt P24723). The conditions noted are these: read-out: Kd; cited from earlier work.

Chain of TIE2 (Q02763 23-1124, species assumed): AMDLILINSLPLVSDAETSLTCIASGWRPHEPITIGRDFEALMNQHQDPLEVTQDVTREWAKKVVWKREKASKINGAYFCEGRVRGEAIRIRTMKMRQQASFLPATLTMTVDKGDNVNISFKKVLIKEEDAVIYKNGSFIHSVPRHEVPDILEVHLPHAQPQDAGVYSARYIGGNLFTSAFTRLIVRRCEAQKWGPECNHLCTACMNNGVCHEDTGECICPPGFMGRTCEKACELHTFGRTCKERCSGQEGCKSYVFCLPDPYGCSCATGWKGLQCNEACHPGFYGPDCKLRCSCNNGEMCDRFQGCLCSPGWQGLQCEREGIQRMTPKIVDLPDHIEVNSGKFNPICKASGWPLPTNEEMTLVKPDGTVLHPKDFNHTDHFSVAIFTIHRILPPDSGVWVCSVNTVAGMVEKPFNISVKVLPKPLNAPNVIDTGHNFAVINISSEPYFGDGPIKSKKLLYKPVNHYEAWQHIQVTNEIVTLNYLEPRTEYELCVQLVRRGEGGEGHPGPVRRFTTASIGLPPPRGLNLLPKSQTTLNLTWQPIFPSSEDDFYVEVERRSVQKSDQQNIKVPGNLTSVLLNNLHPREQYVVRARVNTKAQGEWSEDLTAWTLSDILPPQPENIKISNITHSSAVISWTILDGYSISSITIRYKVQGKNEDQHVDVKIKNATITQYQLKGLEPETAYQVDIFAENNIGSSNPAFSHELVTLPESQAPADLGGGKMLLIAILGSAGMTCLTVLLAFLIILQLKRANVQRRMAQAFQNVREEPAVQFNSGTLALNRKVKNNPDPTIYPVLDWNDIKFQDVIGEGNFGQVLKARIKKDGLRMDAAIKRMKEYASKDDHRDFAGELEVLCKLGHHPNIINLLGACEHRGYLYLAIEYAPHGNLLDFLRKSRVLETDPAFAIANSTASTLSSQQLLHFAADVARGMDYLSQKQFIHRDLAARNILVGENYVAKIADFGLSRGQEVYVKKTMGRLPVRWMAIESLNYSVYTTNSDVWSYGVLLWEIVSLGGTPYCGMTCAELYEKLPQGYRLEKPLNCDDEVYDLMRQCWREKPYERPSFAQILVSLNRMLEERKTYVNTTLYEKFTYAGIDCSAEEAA
Chain of LYN [isoform a] (P07948 whole entry, canonical isoform): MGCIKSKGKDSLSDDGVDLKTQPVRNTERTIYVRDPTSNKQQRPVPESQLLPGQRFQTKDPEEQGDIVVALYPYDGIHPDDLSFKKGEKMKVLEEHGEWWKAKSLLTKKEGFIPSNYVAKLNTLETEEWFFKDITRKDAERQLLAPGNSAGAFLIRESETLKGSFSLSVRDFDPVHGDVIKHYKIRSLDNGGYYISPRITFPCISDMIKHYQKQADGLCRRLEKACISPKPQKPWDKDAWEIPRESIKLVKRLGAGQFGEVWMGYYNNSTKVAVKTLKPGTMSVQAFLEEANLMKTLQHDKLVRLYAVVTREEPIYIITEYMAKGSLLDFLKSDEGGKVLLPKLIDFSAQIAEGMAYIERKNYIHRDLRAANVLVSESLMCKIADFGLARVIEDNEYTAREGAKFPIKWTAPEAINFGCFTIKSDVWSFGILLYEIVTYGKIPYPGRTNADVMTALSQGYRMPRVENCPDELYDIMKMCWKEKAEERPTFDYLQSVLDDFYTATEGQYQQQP
Chain of FYN [isoform a] (P06241 whole entry, canonical isoform): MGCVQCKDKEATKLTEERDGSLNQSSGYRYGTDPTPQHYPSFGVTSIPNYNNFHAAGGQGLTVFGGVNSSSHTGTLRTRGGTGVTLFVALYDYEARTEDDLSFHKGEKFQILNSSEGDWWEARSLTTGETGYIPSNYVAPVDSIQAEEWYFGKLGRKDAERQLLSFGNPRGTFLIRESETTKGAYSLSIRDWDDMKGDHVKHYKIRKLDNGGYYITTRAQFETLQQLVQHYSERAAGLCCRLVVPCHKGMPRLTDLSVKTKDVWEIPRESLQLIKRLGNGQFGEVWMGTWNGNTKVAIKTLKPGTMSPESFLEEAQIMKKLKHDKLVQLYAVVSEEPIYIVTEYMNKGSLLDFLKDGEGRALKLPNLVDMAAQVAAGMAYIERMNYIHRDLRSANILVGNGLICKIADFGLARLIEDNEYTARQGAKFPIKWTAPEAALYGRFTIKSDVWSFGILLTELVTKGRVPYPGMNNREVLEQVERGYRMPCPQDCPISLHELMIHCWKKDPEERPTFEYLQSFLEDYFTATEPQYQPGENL
Chain of RET (P07949 29-1114, species assumed): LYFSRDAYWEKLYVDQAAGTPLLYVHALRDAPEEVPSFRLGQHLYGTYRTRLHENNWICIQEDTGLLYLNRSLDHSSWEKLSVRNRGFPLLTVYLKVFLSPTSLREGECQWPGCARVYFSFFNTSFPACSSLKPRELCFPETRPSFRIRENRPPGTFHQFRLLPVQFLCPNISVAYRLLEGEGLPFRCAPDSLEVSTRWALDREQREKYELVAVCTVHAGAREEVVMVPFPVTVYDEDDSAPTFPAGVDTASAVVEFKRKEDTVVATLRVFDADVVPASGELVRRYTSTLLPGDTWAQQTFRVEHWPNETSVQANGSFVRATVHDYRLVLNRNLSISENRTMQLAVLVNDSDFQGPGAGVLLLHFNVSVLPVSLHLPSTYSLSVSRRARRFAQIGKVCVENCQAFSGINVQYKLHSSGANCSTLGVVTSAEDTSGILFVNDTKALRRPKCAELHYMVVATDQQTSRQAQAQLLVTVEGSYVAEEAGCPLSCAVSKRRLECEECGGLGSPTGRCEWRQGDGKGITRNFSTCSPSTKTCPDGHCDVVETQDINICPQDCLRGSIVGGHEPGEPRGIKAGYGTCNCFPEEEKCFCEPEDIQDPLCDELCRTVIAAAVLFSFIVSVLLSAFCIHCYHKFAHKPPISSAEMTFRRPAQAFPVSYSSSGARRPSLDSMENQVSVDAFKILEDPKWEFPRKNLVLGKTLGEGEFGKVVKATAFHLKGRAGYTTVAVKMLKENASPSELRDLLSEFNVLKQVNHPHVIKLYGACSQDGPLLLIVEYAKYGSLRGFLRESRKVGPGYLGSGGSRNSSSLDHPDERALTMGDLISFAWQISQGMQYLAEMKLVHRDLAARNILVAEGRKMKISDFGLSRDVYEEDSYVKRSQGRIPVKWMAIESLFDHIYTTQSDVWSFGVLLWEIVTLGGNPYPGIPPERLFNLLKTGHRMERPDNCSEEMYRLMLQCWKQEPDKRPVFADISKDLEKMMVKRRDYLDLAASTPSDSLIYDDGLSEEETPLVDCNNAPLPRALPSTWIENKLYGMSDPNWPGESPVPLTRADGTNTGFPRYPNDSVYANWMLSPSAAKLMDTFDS
Chain of FGFR1 (P11362 22-822, species assumed): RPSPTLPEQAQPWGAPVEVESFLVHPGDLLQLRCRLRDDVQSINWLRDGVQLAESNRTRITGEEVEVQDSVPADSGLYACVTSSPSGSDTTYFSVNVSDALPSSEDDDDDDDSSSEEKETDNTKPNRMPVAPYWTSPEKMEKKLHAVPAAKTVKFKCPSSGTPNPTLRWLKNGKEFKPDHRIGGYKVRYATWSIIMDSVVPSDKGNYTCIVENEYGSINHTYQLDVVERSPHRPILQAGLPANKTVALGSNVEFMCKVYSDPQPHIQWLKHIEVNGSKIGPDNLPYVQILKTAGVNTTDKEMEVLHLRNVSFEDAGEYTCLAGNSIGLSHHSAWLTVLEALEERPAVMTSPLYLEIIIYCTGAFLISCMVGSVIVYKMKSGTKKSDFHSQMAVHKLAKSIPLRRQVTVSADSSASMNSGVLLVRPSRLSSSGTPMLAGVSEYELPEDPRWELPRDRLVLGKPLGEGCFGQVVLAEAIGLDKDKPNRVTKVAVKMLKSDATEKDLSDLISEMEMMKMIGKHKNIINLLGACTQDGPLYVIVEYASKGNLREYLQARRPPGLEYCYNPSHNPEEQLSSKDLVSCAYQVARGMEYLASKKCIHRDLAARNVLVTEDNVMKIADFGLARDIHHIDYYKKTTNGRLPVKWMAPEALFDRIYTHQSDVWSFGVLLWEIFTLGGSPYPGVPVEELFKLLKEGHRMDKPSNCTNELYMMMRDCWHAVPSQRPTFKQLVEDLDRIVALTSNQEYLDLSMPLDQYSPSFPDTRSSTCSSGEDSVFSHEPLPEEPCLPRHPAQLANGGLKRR
Chain of PKC beta (P05771 whole entry): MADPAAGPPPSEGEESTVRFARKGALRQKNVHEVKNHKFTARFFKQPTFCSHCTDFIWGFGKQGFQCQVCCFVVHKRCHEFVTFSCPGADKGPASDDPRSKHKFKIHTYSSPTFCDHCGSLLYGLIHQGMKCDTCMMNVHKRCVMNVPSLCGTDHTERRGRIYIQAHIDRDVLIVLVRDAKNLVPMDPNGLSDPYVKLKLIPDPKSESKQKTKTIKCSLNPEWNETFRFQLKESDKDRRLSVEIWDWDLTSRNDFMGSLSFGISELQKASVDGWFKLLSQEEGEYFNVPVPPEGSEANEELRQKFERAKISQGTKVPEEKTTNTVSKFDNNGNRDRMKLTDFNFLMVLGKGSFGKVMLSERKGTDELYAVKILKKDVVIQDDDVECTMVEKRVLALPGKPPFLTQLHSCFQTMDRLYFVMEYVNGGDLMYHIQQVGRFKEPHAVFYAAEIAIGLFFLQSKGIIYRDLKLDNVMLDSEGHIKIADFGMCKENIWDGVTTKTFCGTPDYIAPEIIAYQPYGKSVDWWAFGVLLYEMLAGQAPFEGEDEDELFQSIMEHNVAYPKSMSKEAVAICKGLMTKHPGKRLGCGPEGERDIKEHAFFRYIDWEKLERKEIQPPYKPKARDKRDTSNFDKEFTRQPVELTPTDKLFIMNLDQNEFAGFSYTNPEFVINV

On to `Cc1sc2c(c1C)C(c1ccc(Cl)cc1)=NC(CC(=O)NCCOCCOCCOCCOCCC(=O)NC1=NN(c3ccc(Cl)c(Cl)c3)CC1)c1nnc(C)n1-2` (stereo not drawn) [VS850], for which the “tyrosine phosphorylation enzymatic activity” value at BRD4 (Abl) is “inactive”.
Consider `Cc1ccc(C(=O)Nc2ccc(CN3CCN(C)CC3)c(C(F)(F)F)c2)cc1C#Cc1cnc2cccnn12` [Ponatinib], for which the ka at LYN [isoform a] is 110000 M⁻¹ s⁻¹; at TIE2 it was 40200 M⁻¹ s⁻¹; at RET, 118000 M⁻¹ s⁻¹; at FGFR1, 17900 M⁻¹ s⁻¹; at FYN [isoform a], 84900 M⁻¹ s⁻¹; on BTK, 21500 M⁻¹ s⁻¹. Further, the ka at DDR2 was 29800 M⁻¹ s⁻¹. Moreover, the kd at LYN [isoform a] was 5.4e-05 s⁻¹; at TIE2 it was 0.00268 s⁻¹; at RET, 4.29e-05 s⁻¹; at FGFR1, 0.000119 s⁻¹; at FYN [isoform a], 8.93e-05 s⁻¹; at BTK it was 0.0168 s⁻¹. Further, the kd at DDR2 was 0.00014 s⁻¹. Also, the “log(ka)” value is given as 5.04 at LYN [isoform a]; 4.60 at TIE2; 5.07 on RET; 4.25 at FGFR1; 4.93 on FYN [isoform a]; 4.47 at DDR2. Moreover, the “log(kd)” value is −4.27 on LYN [isoform a]; −2.57 at TIE2; −4.37 on RET; −3.93 at FGFR1; −4.05 at FYN [isoform a]; −3.85 at DDR2.
On to `CC(C)(C)c1nc(-c2cccc(NS(=O)(=O)c3c(F)cccc3F)c2F)c(-c2ccnc(N)n2)s1` [Dabrafenib], for which, at BRAF, the ka was 467000 M⁻¹ s⁻¹ and the kd is 0.000288 s⁻¹.
On to `Cc1sc2c(c1C)C(c1ccc(Cl)cc1)=N[C@@H](CC(=O)NCc1cn(CCCCCC(=O)NCCOc3ccc(-c4cc5c(C(=O)O)c[nH]c5cc4Cl)cc3)nn1)c1nnc(C)n1-2` [MS231], for which, on BRD4 (AMPK), the “effect of addition of AMP on BRD4 phosphorylation signal” value is listed as “enhances the phosphorylation signal”.
`CC(C)[C@H]1C(=O)N[C@H](CO)CCc2c[nH]c3cccc(c23)N1C`: the Kd – broadly, a measure of binding affinity in units of concentration – at PKC beta is 6.1 nM; on PKCalpha, 11 nM; at PKC epsilon, 21.9 nM; on PKC gamma it was 19.4 nM; on PKC delta it was 8.2 nM. Also, the “antiproliferative activity against breast carcinoma” value in [1] is “inactive against breast carcinoma”.
In the case of `Cc1sc2c(c1C)C(c1ccc(Cl)cc1)=NC(CC(=O)NCCCCCC(=O)NCc1ccc(COc3ccc4c(c3)N(C)[C@@H](C(C)C)C(=O)N[C@H](CO)C4)cc1)c1nnc(C)n1-2` (stereo partly drawn) [(R)-PHICS2.3], the “PKC activation (ADP-Glo)” value at PKCα is on record as “still activated”.
With `Cc1sc2c(c1C)C(c1ccc(Cl)cc1)=NC(CC(=O)NCCOCCOCCOCCOCCC(=O)NC1=NN(c3ccc(Cl)c(Cl)c3)CC1)c1nnc(C)n1-2` (stereo not drawn) [VS801], the “tyrosine phosphorylation enzymatic activity” value on BRD4 (Abl) is “high tyrosine phosphorylation enzymatic activity”.
With `C=C(C)[C@@]12OC3(c4ccccc4)O[C@@H]1[C@@H]1C4OC4(CO)C[C@]4(O)C(=O)C(C)=C[C@H]4[C@@]1(O3)[C@H](C)[C@H]2OC(=O)/C=C/C=C/c1ccccc1` (stereo partly drawn), the Kd was 1.27 nM at PKC eta; 0.16 nM at PKC beta; 0.27 nM at PKCalpha; 1.2 nM on PKC epsilon; 0.21 nM on PKC gamma; 0.55 nM on PKC delta.
For `Cc1sc2c(c1C)C(c1ccc(Cl)cc1)=N[C@@H](CC(=O)NCCOCCOCCOCCOCCC(=O)NCCOc1ccc(-c3cc4c(C(=O)O)c[nH]c4cc3Cl)cc1)c1nnc(C)n1-2` [VS806], the “effect of addition of AMP on BRD4 phosphorylation signal” value at BRD4 (AMPK) is “enhances the phosphorylation signal”.
